Key:
Format in all cases: biochemical
[1] = molecular target: T1, full length recombinant Pim-1 protein (Homo sapiens, UniProt P11309); test: Pim-1 enzyme assay (HTRF, phosphorylation of biotinylated-BAD (S112) peptide); details: enzyme assay, Pim-1; read-out: Pim_1_IC50
T1 construct: by full length recombinant Pim-1, Pim-2, or Pim-3 protein; hexahistidine tag followed by a thrombin cleavage site (N); made in house; host or cells: Sf9 (baculovirus) or E. coli (pET28)
Procedure, shortened: (§1)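 HTRF read-out: Eu-labelled anti-phospho-BAD (S112) antibody plus streptavidin-APC detect phosphorylated biotin-BAD peptide. Enzymes were full-length recombinant human Pim-1 and Pim-2; buffer 60 mM Hepes pH 7.0, 0.05% BSA, 2 mM DTT; reactions quenched with 3 mM EDTA. Percent-of-control data fitted to a 4-parameter logistic for IC50.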

[2] = molecular target: T2, full length recombinant Pim-2 protein (Homo sapiens, UniProt Q9P1W9); test: Pim-2 enzyme assay (HTRF, phosphorylation of biotinylated-BAD (S112) peptide); details: enzyme assay, Pim-2; read-out: Pim2_IC50
T2 construct: by full length recombinant Pim-1, Pim-2, or Pim-3 protein; hexahistidine tag followed by a thrombin cleavage site (N); made in house; host or cells: Sf9 (baculovirus) or E. coli (pET28)
T2 sequence (Q9P1W9 whole entry): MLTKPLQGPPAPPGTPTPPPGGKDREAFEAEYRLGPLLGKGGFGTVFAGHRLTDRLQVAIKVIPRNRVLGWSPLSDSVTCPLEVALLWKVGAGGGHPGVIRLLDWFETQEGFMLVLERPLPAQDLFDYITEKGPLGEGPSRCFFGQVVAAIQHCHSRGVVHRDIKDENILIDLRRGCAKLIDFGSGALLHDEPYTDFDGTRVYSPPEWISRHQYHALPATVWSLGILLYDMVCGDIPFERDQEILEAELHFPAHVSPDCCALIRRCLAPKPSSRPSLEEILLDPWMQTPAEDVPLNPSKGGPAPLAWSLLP
Procedure, shortened: as §1

[3] = molecular target: T3, full length recombinant Pim-3 protein (Homo sapiens, UniProt Q86V86); test: Pim-3 enzyme assay (HTRF, phosphorylation of biotinylated-BAD (S112) peptide); details: read-out: Pim3 IC50
T3 construct: by full length recombinant Pim-1, Pim-2, or Pim-3 protein; purchased Millipore (UK)
Excerpt: Pim-3 was purchased from Millipore (UK).
The phosphorylation of biotinylated-BAD (S112) peptide by full length recombinant Pim-1, Pim-2, or Pim-3 protein was detected with streptavidin:Allophycocyanin (APC) conjugate and a europium (Eu) labeled antibody directed against phosphorylated-BAD (S112). […] The fluorescence is directly proportional to the amount of phosphorylated BAD peptide present in the reaction.
A reference compound was included on each assay plate in order to validate that plate; on one plate of every assay run, two additional reference compounds were included.
The final buffer conditions were as follows: 60 mM Hepes, pH 7.0, 0.05% BSA, 2 mM DTT. […] The reaction was stopped by the addition of 3 mM EDTA, and fluorescence was measured by an HTRF® Rubystar microplate reader. For each plate, percent of control (POC) values were calculated for each well. Values for the IC50 IP were estimated using a standard 4-parameter logistic model.

T1 sequence (P11309 whole entry): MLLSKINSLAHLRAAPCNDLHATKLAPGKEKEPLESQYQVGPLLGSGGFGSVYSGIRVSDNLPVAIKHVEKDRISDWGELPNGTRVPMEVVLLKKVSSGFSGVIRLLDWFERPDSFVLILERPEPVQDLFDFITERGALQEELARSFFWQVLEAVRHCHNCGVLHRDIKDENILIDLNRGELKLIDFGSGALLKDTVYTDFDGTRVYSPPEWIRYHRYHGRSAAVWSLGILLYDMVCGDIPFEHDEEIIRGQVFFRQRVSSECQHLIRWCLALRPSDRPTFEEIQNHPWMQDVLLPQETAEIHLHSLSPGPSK

Row | IC50 [1] | IC50 [2] | IC50 [3] | SMILES
1 | 35 nM | 214 nM | 29 nM | FC(F)(F)Oc1cccc(-c2ccc3[nH]nc(-c4cncc(O[C@@H]5CCCNC5)n4)c3c2)c1 [Example 150, 3-(6-((3R)-3-piperidinyloxy)-2-pyrazinyl)-5-(3-(trifluoromethoxy)phenyl)-1H-indazole]
2 | 27 nM | 118 nM | 129 nM | c1cc2[nH]nc(-c3cncc(O[C@@H]4CCCNC4)n3)c2cc1C1CCOCC1 [Example 151, 3-(6-((3R)-3-piperidinyloxy)-2-pyrazinyl)-5-(tetrahydro-2H-pyran-4-yl)-1H-indazole]
3 | 36 nM | 108 nM | 27 nM | Oc1nccc(-c2ccc3[nH]nc(-c4cncc(O[C@@H]5CCCNC5)n4)c3c2)n1 [Example 155, 4-(3-(6-((3R)-3-piperidinyloxy)-2-pyrazinyl)-1H-indazol-5-yl)-2-pyrimidinol]
4 | 49 nM | 144 nM | 66 nM | c1cc2[nH]nc(-c3cncc(O[C@@H]4CCCNC4)n3)c2cc1C1CCCOC1 (stereo partly drawn) [Example 156, 3-(6-((3R)-3-piperidinyloxy)-2-pyrazinyl)-5-(tetrahydro-2H-pyran-3-yl)-1H-indazole]
5 | 153 nM | > 3000 nM | 187 nM | Fc1cccc(F)c1-c1ccc2[nH]nc(-c3cncc(N4CCCC4)n3)c2c1 [Example 170, 5-(2,6-difluorophenyl)-3-(6-(1-pyrrolidinyl)-2-pyrazinyl)-1H-indazole]
6 | 168 nM | 1180 nM | 153 nM | O[C@H]1CCN(c2cncc(-c3n[nH]c4ccc(-c5c(F)cccc5F)cc34)n2)C1 [Example 175, (3S)-1-(6-(5-(2,6-difluorophenyl)-1H-indazol-3-yl)-2-pyrazinyl)-3-pyrrolidinol]
7 | 168 nM | 858 nM | 122 nM | CNc1cncc(-c2n[nH]c3ccc(-c4c(F)cccc4F)cc23)n1 [Example 179, 6-(5-(2,6-difluorophenyl)-1H-indazol-3-yl)-N-methyl-2-pyrazinamine]
8 | 206 nM | 2080 nM | 146 nM | CN(C)c1cncc(-c2n[nH]c3ccc(-c4c(F)cccc4F)cc23)n1 [Example 181, 6-(5-(2,6-difluorophenyl)-1H-indazol-3-yl)-N,N-dimethyl-2-pyrazinamine]
9 | 147 nM | 1250 nM | 175 nM | CNc1nccc(-c2n[nH]c3ccc(-c4c(F)cccc4F)cc23)n1 [Example 192, 4-(5-(2,6-difluorophenyl)-1H-indazol-3-yl)-N-methyl-2-pyrimidinamine]
10 | 161 nM | 1340 nM | 143 nM | CC(C)Nc1nccc(-c2n[nH]c3ccc(-c4c(F)cccc4F)cc23)n1 [Example 193, 4-(5-(2,6-difluorophenyl)-1H-indazol-3-yl)-N-(1-methylethyl)-2-pyrimidinamine]
11 | 37 nM | 187 nM | 18 nM | C[C@@H]1CCNC[C@H]1Oc1cncc(-c2n[nH]c3ccc(-c4c(F)cccc4F)cc23)n1 [Example 197, 5-(2,6-difluorophenyl)-3-(6-(((3S,4R)-4-methyl-3-piperidinyl)oxy)-2-pyrazinyl)-1H-indazole]
12 | 120 nM | 424 nM | 91 nM | Fc1cccc(F)c1-c1ccc2[nH]cc(-c3nccc(NC4CCNCC4)n3)c2c1 [Example 210, 2-(5-(2,6-difluorophenyl)-1H-indol-3-yl)-N-4-piperidinyl-4-pyrimidinamine]
13 | 45 nM | 515 nM | 83 nM | Fc1cccc(F)c1-c1ccc2[nH]cc(-c3cncc(O[C@H]4CCCNC4)n3)c2c1 [Example 214, 5-(2,6-difluorophenyl)-3-(6-((3S)-3-piperidinyloxy)-2-pyrazinyl)-1H-indole]
14 | 1640 nM | > 3000 nM | 538 nM | CC(C)Oc1cncc(-c2ccc3[nH]cc(-c4ccc(F)cn4)c3c2)n1 [Example 215, 3-(5-fluoro-2-pyridinyl)-5-(6-(1-methylethoxy)-2-pyrazinyl)-1H-indole]
15 | 601 nM | 2150 nM | 245 nM | Cc1ccnc(-c2c[nH]c3ccc(-c4cncc(OC(C)C)n4)cc23)c1 [Example 216, 5-(6-(1-methylethoxy)-2-pyrazinyl)-3-(4-methyl-2-pyridinyl)-1H-indole]

More lines, now with the values behind:

Row | SMILES | IC50 [1] | IC50 [2] | IC50 [3]
16 | Cc1c(N)cccc1-c1ccc2[nH]nc(-c3cncc(N4CCC(N)CC4)n3)c2c1 [Example 103, 1-(6-(5-(3-amino-2-methylphenyl)-1H-indazol-3-yl)-2-pyrazinyl)-4-piperidinamine] | 34 nM | 224 nM | 68 nM
17 | NC1CCN(c2cncc(-c3n[nH]c4ccc(-c5cccc6c5C5(CCOCC5)CN6)cc34)n2)CC1 [Example 106, 1-(6-(5-(1,2,2′,3′,5′,6′-hexahydrospiro[indole-3,4′-pyran]-4-yl)-1H-indazol-3-yl)-2-pyrazinyl)-4-piperidinamine] | 499 nM | 897 nM | 278 nM
18 | Nc1ccc(OC(F)(F)F)c(-c2ccc3[nH]nc(-c4cncc(N5CCC(N)CC5)n4)c3c2)c1 [Example 107, 1-(6-(5-(5-amino-2-(trifluoromethoxy)phenyl)-1H-indazol-3-yl)-2-pyrazinyl)-4-piperidinamine] | 30 nM | 192 nM | 67 nM
19 | NC1CCN(c2cncc(-c3n[nH]c4ccc(-c5ccnc6cc(OC(F)(F)F)ccc56)cc34)n2)CC1 [Example 111, 1-(6-(5-(7-(trifluoromethoxy)-4-quinolinyl)-1H-indazol-3-yl)-2-pyrazinyl)-4-piperidinamine] | 29 nM | 292 nM | 87 nM
20 | N#Cc1ccc2c(-c3ccc4[nH]nc(-c5cncc(N6CCC(N)CC6)n5)c4c3)ccnc2c1 [Example 112, 4-(3-(6-(4-amino-1-piperidinyl)-2-pyrazinyl)-1H-indazol-5-yl)-7-quinolinecarbonitrile] | 32 nM | 521 nM | 116 nM
21 | CC(C)(C)NC(=O)c1ccc(F)c(-c2ccc3[nH]nc(-c4cncc(O[C@@H]5CCCNC5)n4)c3c2)c1 [Example 116, N-tert-butyl-4-fluoro-3-(3-(6-((3R)-3-piperidinyloxy)-2-pyrazinyl)-1H-indazol-5-yl)benzamide] | 27 nM | 26 nM | 22 nM
22 | O=c1[nH]cncc1-c1ccc2[nH]nc(-c3cncc(O[C@@H]4CCCNC4)n3)c2c1 [Example 125, 5-(3-(6-((3R)-3-piperidinyloxy)-2-pyrazinyl)-1H-indazol-5-yl)-4(3H)-pyrimidinone] | 21 nM | 80 nM | 16 nM
23 | O=c1cc(-c2ccc3[nH]nc(-c4cncc(O[C@@H]5CCCNC5)n4)c3c2)c(Cl)c[nH]1 [Example 128, 5-chloro-4-(3-(6-((3R)-3-piperidinyloxy)-2-pyrazinyl)-1H-indazol-5-yl)-2(1H)-pyridinone] | 31 nM | 59 nM | 30 nM
24 | Cn1cc(-c2ccc3[nH]nc(-c4cncc(O[C@@H]5CCCNC5)n4)c3c2)cn1 [Example 129, 5-(1-methyl-1H-pyrazol-4-yl)-3-(6-((3R)-3-piperidinyloxy)-2-pyrazinyl)-1H-indazole] | 3 nM | 30 nM | 3 nM
25 | Brc1ccc2[nH]nc(-c3cncc(O[C@@H]4CCCNC4)n3)c2c1 [Example 135, 5-bromo-3-(6-((3R)-3-piperidinyloxy)-2-pyrazinyl)-1H-indazole] | 83 nM | 227 nM | 82 nM
26 | c1cc(-c2ccc3[nH]nc(-c4cncc(O[C@@H]5CCCNC5)n4)c3c2)nc(C2CC2)c1 [Example 136, 5-(6-cyclopropyl-2-pyridinyl)-3-(6-((3R)-3-piperidinyloxy)-2-pyrazinyl)-1H-indazole] | 30 nM | 164 nM | 15 nM
27 | c1cc(C2CC2)cc(-c2ccc3[nH]nc(-c4cncc(O[C@@H]5CCCNC5)n4)c3c2)n1 [Example 141, 5-(4-cyclopropyl-2-pyridinyl)-3-(6-((3R)-3-piperidinyloxy)-2-pyrazinyl)-1H-indazole] | 42 nM | 435 nM | 32 nM
28 | CC(C)Oc1cccc(-c2ccc3[nH]nc(-c4cncc(O[C@@H]5CCCNC5)n4)c3c2)n1 [Example 144, 5-(6-(1-methylethoxy)-2-pyridinyl)-3-(6-((3R)-3-piperidinyloxy)-2-pyrazinyl)-1H-indazole] | 27 nM | 252 nM | 26 nM
29 | c1cc2[nH]nc(-c3cncc(O[C@@H]4CCCNC4)n3)c2cc1-c1ccc2nncn2c1 [Example 145, 6-(3-(6-((3R)-3-piperidinyloxy)-2-pyrazinyl)-1H-indazol-5-yl)[1,2,4]triazolo[4,3-a]pyridine] | 23 nM | 496 nM | 80 nM

Reference: US9090593B2, “Bicyclic compounds as Pim inhibitors” (AMGEN INC., priority 2010, dated 2015)
